In the NIST ThermoML archive (doi:10.1016/j.jct.2005.09.003):

Experiment: xn = mol fraction of the nth substance listed
Settings: Liquid

CCCCCCCl [1-chlorohexane] + CCCCCCCC
mass density [kg/m3]
Settings | x2 = 0 | x2 = 0.1016 | x2 = 0.1996 | x2 = 0.3153 | x2 = 0.3948 | x2 = 0.4862 | x2 = 0.5938 | x2 = 0.6966 | x2 = 0.794 | x2 = 0.9001
308.15 K, 39620 kPa | – | – | – | – | – | – | – | – | – | 735.19
318.15 K, 100 kPa | 854.58 | 834.04 | 814.96 | 793.28 | 778.92 | 762.93 | 744.78 | 728.11 | 712.89 | 696.93
318.15 K, 2130 kPa | 856.27 | 835.95 | 816.81 | 795.21 | 780.76 | 764.83 | 746.83 | 730.05 | 714.94 | 698.9
318.15 K, 4150 kPa | 858.19 | 837.89 | 818.74 | 797.18 | 782.71 | 766.77 | 748.78 | 732.01 | 716.9 | 700.85
318.15 K, 6180 kPa | 860.06 | 839.78 | 820.64 | 799.07 | 784.6 | 768.67 | 750.71 | 733.92 | 718.79 | 702.75
318.15 K, 8210 kPa | 861.91 | 841.62 | 822.49 | 800.94 | 786.48 | 770.55 | 752.56 | 735.77 | 720.67 | 704.6
318.15 K, 10230 kPa | 863.73 | 843.46 | 824.34 | 802.79 | 788.32 | 772.38 | 754.41 | 737.61 | 722.49 | 706.41
318.15 K, 11250 kPa | 864.62 | 844.35 | 825.23 | 803.67 | 789.21 | 773.28 | 755.31 | 738.5 | 723.39 | 707.3
318.15 K, 12260 kPa | 865.5 | 845.27 | 826.11 | 804.57 | 790.11 | 774.2 | 756.2 | 739.4 | 724.3 | 708.21
318.15 K, 14290 kPa | 867.28 | 847.01 | 827.89 | 806.35 | 791.88 | 775.94 | 757.98 | 741.15 | 726.04 | 709.95
318.15 K, 16310 kPa | 869 | 848.75 | 829.61 | 808.09 | 793.61 | 777.66 | 759.69 | 742.89 | 727.75 | 711.66
318.15 K, 18340 kPa | 870.66 | 850.43 | 831.3 | 809.76 | 795.29 | 779.35 | 761.37 | 744.57 | 729.42 | 713.3
318.15 K, 20370 kPa | 872.33 | 852.13 | 832.97 | 811.43 | 796.96 | 781.01 | 763.03 | 746.2 | 731.08 | 714.96
318.15 K, 22390 kPa | 873.95 | 853.71 | 834.6 | 813.06 | 798.59 | 782.65 | 764.67 | 747.82 | 732.69 | 716.55
318.15 K, 24420 kPa | 875.54 | 855.32 | 836.2 | 814.65 | 800.17 | 784.23 | 766.24 | 749.39 | 734.25 | 718.09
318.15 K, 26450 kPa | 877.12 | 856.9 | 837.77 | 816.23 | 801.75 | 785.8 | 767.8 | 750.95 | 735.8 | 719.69
318.15 K, 28470 kPa | 878.67 | 858.45 | 839.34 | 817.78 | 803.29 | 787.34 | 769.34 | 752.48 | 737.32 | 721.17
318.15 K, 29490 kPa | 879.43 | 859.22 | 840.08 | 818.54 | 804.05 | 788.09 | 770.08 | 753.23 | 738.07 | 721.87
318.15 K, 30500 kPa | 880.19 | 859.99 | 840.84 | 819.31 | 804.81 | 788.85 | 770.85 | 753.99 | 738.83 | 722.64
318.15 K, 32530 kPa | 881.7 | 861.5 | 842.34 | 820.8 | 806.31 | 790.33 | 772.31 | 755.45 | 740.27 | 724.08
318.15 K, 34550 kPa | 883.17 | 862.97 | 843.8 | 822.26 | 807.75 | 791.8 | 773.76 | 756.87 | 741.69 | 725.5
318.15 K, 36580 kPa | 884.63 | 864.41 | 845.26 | 823.71 | 809.2 | 793.22 | 775.19 | 758.28 | 743.11 | 726.91
318.15 K, 38600 kPa | 886.04 | 865.86 | 846.68 | 825.13 | 810.6 | 794.61 | 776.59 | 759.68 | 744.49 | 728.26
318.15 K, 39620 kPa | 886.76 | 866.55 | 847.39 | 825.83 | 811.31 | 795.32 | 777.27 | 760.4 | 745.19 | 728.95
328.15 K, 100 kPa | 845.18 | 824.75 | – | 784.31 | 770.08 | 754.25 | 736.27 | 719.76 | 704.68 | 688.86
328.15 K, 2130 kPa | 847.12 | 826.75 | 807.96 | 786.36 | 772.17 | 756.35 | 738.33 | 721.87 | 706.7 | 690.84
328.15 K, 4150 kPa | 849.17 | 828.82 | 810.05 | 788.45 | 774.26 | 758.45 | 740.42 | 723.96 | 708.79 | 692.91
328.15 K, 6180 kPa | 851.16 | 830.83 | 812.05 | 790.48 | 776.28 | 760.49 | 742.45 | 725.98 | 710.81 | 694.93
328.15 K, 8210 kPa | 853.13 | 832.8 | 814.05 | 792.45 | 778.27 | 762.48 | 744.42 | 728 | 712.79 | 696.92
328.15 K, 10230 kPa | 855.02 | 834.72 | 815.97 | 794.38 | 780.21 | 764.41 | 746.38 | 729.93 | 714.74 | 698.84
328.15 K, 11250 kPa | 855.98 | 835.67 | 816.92 | 795.34 | 781.17 | 765.37 | 747.33 | 730.88 | 715.68 | 699.79
328.15 K, 12260 kPa | 856.91 | 836.61 | 817.87 | 796.3 | 782.13 | 766.33 | 748.28 | 731.81 | 716.64 | 700.74
328.15 K, 14290 kPa | 858.76 | 838.48 | 819.73 | 798.16 | 784 | 768.18 | 750.17 | 733.7 | 718.5 | 702.6
328.15 K, 16310 kPa | 860.59 | 840.3 | 821.56 | 799.99 | 785.83 | 770.03 | 752 | 735.52 | 720.32 | 704.39
328.15 K, 18340 kPa | 862.35 | 842.06 | 823.33 | 801.75 | 787.59 | 771.78 | 753.76 | 737.29 | 722.07 | 706.15
328.15 K, 20370 kPa | 864.12 | 843.84 | 825.11 | 803.54 | 789.37 | 773.56 | 755.51 | 739.04 | 723.83 | 707.88
328.15 K, 22390 kPa | 865.82 | 845.55 | 826.81 | 805.24 | 791.08 | 775.27 | 757.24 | 740.74 | 725.52 | 709.57
328.15 K, 24420 kPa | 867.51 | 847.24 | 828.51 | 806.94 | 792.78 | 776.96 | 758.91 | 742.4 | 727.18 | 711.21
328.15 K, 26450 kPa | 869.18 | 848.91 | 830.19 | 808.59 | 794.43 | 778.61 | 760.54 | 744.05 | 728.79 | 712.83
328.15 K, 28470 kPa | 870.8 | 850.52 | 831.8 | 810.22 | 796.05 | 780.22 | 762.15 | 745.64 | 730.38 | 714.38
328.15 K, 29490 kPa | 871.6 | 851.32 | 832.59 | 811.01 | 796.83 | 781.01 | 762.93 | 746.43 | 731.16 | 715.18
328.15 K, 30500 kPa | 872.4 | 852.13 | 833.4 | 811.81 | 797.63 | 781.8 | 763.73 | 747.21 | 731.95 | 715.96
328.15 K, 32530 kPa | 873.95 | 853.71 | 834.95 | 813.36 | 799.19 | 783.35 | 765.25 | 748.74 | 733.44 | 717.46
328.15 K, 34550 kPa | 875.49 | 855.25 | 836.5 | 814.87 | 800.71 | 784.87 | 766.77 | 750.23 | 734.96 | 718.95
328.15 K, 36580 kPa | 877.05 | 856.79 | 838.03 | 816.42 | 802.23 | 786.39 | 768.27 | 751.74 | 736.44 | 720.42
328.15 K, 38600 kPa | 878.53 | 858.28 | 839.51 | 817.9 | 803.7 | 787.85 | 769.73 | 753.2 | 737.86 | 721.85
328.15 K, 39620 kPa | 879.31 | 859.03 | 840.27 | 818.64 | 804.43 | 788.56 | 770.44 | 753.9 | 738.58 | 722.55
